The conditions of series [1]: low solubility and high permeability; cited from earlier work.
A short description of series [2]: Saturation solubility study in ddH2O. It counts as physicochemical. As to conditions: 25°C, 90 minutes; for Saturation & Solubility: 100 rpm, mean ± SD of triplicates, per batch; for saturation solubility (water solubility): independent batches. Here is the method: Determination of Saturation Solubility of Chidamide-HCl, Chidamide-H2SO4, and Celecoxib-Na Salts. Sample of 5 mg of chidamide-HCl, chidamide-H2SO4, or celecoxib-Na salts was added to 5 ml volumetric flasks containing ddH2O and shook at 100 rpm in an incubator at 25°C for 90 minutes. The resulting suspension was filtered through a 0.22 µm filter. The concentrations of chidamide-HCl, chidamide-H2SO4, and celecoxib-Na salts were determined spectrophotometrically at 256 nm, 256 nm, and 253 nm, respectively. The saturation solubility of each sample was determined in triplicates and the mean value and standard deviation were reported. Preparation of standard curves is described as below.

Consider `Cc1ccc(-c2cc(C(F)(F)F)nn2-c2ccc(S(N)(=O)=O)cc2)cc1` [Celecoxib-API, 4-[5-(4-Methylphenyl)-3-(trifluoromethyl)pyrazol-1-yl]benzenesulfonamide], for which the “BCS (biopharmaceutical classification system) class” value in series [1] is reported as “class II”. Moreover, in series [2], the “Saturation & Solubility” value is reported as “BDL” and the “saturation solubility (water solubility)” value is given as “water-insoluble”.
Consider `Nc1cc(F)ccc1NC(=O)c1ccc(CNC(=O)/C=C/c2cccnc2)cc1` [Chidamide-API, 4-(((E)-3-(pyridin-3-yl)acrylamido)methyl)-N-(2-amino-4-fluorophenyl)benzamide], for which, in series [2], the “Saturation & Solubility” value was “BDL” and the “saturation solubility (water solubility)” value is “water-insoluble”.

(Values after patent publication EP4028002B1, “AN ANTICANCER COMBINATION OF CHIDAMIDE AND CELECOXIB” (Great Novel Therapeutics Biotech & Medicals Corporation, priority 2019, dated 2021).)
